Where two headings read alike, the source gives them in different places.
Columns and labels:
[1] = test system: Human uterus cancer-derived cells HeLa S3; test: Growth prevention against cancer cells (72 h contact, Methylene Blue staining); format: cell-based; conditions: HeLa S3, 72 hours contact, 37° C., read-out: 50% Inhibitory Concentration (IC50)
Description: The compounds of the present invention were examined on the antitumor activity, and the thus obtained results are shown below.
1. Growth prevention against cancer cells
Human uterus cancer-derived cells HeLa S3 were incubated at 37° C. for 24 hours in 5% CO2. A test compound was then brought into contact with the cells for 72 hours. Then, the cells were stained with 0.05% Methylene Blue. The pigment was extracted from the stained cells. The growth inhibition of the cells were determined based on absorbance at 660 nm to calculate 50% growth inhibitory concentration (IC50).

[2] = test system: Mouse leukemia cells P388; test: Antitumor effect on cancer cells in vivo (P388 leukemia, survival); design: species or system mouse (female CDF1 mice); conditions: i.v. single administration; for Survived Days: P388 in female CDF1 mice; for Effect (T/C %): ratio of survival days to median of control group
Description: 2. Antitumor effect on cancer cells in vivo
Mouse leukemia cells P388 was intravenously injected to female CDF1 mice of 6 weeks old in a dose of 10^5 cells/mouse. A 5% glucose aqueous solution of 2,3-(methylenedioxy)-7-hydroxy-8-methoxy-5,6-propano-benzo[c]phenanthridinium chloride (Compound No. A-4 of the present invention, (X^- =Cl^-)) was intravenously injected by single administration on the day following the tumor transportation. The antitumor effect was evaluated by comparing the ratio (T/C %) of survival days to the median of survival days in the control group (5 mice).

female CDF1 mice = test: Acute toxicity by intravenous injection; format: in vivo, mouse (female CDF1 mice); conditions: female CDF1 mice of 6 weeks old
Description: The acute toxicity was assessed by intravenous injection of 2,3-(methylenedioxy)-7-hydroxy-8-methoxy-5,6-propano-benzo[c]phenanthridinium chloride (Compound No. A-4 of the present invention, (X^- =Cl^-)) to female CDF1 mice of 6 weeks old.

[3] = Chemical reduction with sodium cyanoborohydride; format: physicochemical
Description: (§1) In addition, when an in vitro metabolic test using liver homogenate (S9) prepared from human liver was performed with reference to the method described in Arch. […] This product coincided with the reduced product formed by the chemical reduction described above.
(§2) 2,3-(Methylenedioxy)-7-hydroxy-8-methoxy-5,6-propano-benzo[c]phenanthridinium chloride, which is one of the compounds of the present invention, was treated with sodium cyanoborohydride in an aqueous solution at room temperature.
The compound of the present invention (0.1 mg/mL aqueous solution, 0.1 mL) was diluted with methanol (1.0 mL). An aqueous solution of sodium cyanoborohydride (4 mg/mL, 0.02 mL) was added to the solution. The mixture was allowed to stand at room temperature. The reaction was terminated by adding 1% aqueous phosphoric acid (1 mL) thereto. The residual amount of the compound was determined by high performance liquid chromatography. As a control, 2,3-(methylenedioxy)-5-methyl-7-hydroxy-8-methoxy-benzo[c]phenanthridiniumhydrogensulfate was similarly reacted.

[4] = In vitro metabolic test using liver homogenate (S9); format: in vitro ADME, human
Description: as §1, §2

[5] = aqueous sodium cyanoborohydride

| Compound | IC50 [1] [nM] | Survived Days ([2]; 25 mg/kg/day) [days] | Effect (T/C %) ([2]; 25 mg/kg/day) [%] | Survived Days ([2]; 50 mg/kg/day) [days] | Effect (T/C %) ([2]; 50 mg/kg/day) [%] | Survived Days ([2]; 75 mg/kg/day) [days] | Effect (T/C %) ([2]; 75 mg/kg/day) [%] | Survived Days ([2]; 100 mg/kg/day) [days] | Effect (T/C %) ([2]; 100 mg/kg/day) [%] | Acute toxicity (survival) (female CDF1 mice) | Amount of Compound remained after Reduction [3, 5] | Production of metabolite [4] | Disappearance on treatment with sodium cyanoborohydride ([3]; aqueous solution, room temperature) | Amount of Compound remained after Reduction ([3]; sodium cyanoborohydride, room temperature, terminated with phosphoric acid, HPLC) | Production of metabolite ([4]; in vitro, liver homogenate (S9) prepared from human liver) |
| --- | --- | --- | --- | --- | --- | --- | --- | --- | --- | --- | --- | --- | --- | --- | --- |
| COc1ccc2c(c1O)c1[n+](c3c4cc5c(cc4ccc23)OCO5)CCC1 [Compound No. A-4, 2,3-(methylenedioxy)-7-hydroxy-8-methoxy-5,6-propano-benzo[c]phenanthridinium chloride] | 170 | 14 | 167 | 21 | 250 | > 30 | > 357 | > 30 | > 357 | survived even in a dose of 100 mg/kg, without showing any death | 50 | no metabolite was produced |  |  |  |
| COc1ccc2c(c1O)c1[n+](c3c4cc5c(cc4ccc23)OCO5)CCCC1 [Compound No. A-7, 2,3-(methylenedioxy)-7-hydroxy-8-methoxy-5,6-butano-benzo[c]phenanthridinium chloride] | 5600 |  |  |  |  |  |  |  |  |  | 100 |  |  |  |  |
| COc1ccc2c(c[n+](C)c3c4cc5c(cc4ccc23)OCO5)c1O [Control, 2,3-(methylenedioxy)-5-methyl-7-hydroxy-8-methoxy-benzo[c]phenanthridiniumhydrogensulfate, reference compound] |  |  |  |  |  |  |  |  |  |  |  |  | the phenanthridinium is lost in a few minutes | 0 | production of the metabolite was observed |
